Reference: ChEMBL document CHEMBL5543121, “Drug Repurposing of ACT001 to Discover Novel Promising Sulfide Prodrugs with Improved Safety and Potent Activity for Neutrophil-Mediated Antifungal Immunotherapy” (J Med Chem, 2024)
pIC50: −log10 of the molar value. The source made the active and inactive calls. No cut-off for these calls is given here.

What was measured:
[1] = Inhibition of fungal curdlan induced PD-L1 expression in mouse neutrophils at 40 uM relative to control; format: functional, Neutrophil; conditions: for inhibition at 40 µM: Mus musculus, Neutrophil; for inhibition (INH): 40 µM
[2] = (§1) Cytotoxicity against mouse neutrophils assessed as cell viability at 40 uM relative to control; format: toxicity, cell-based, Neutrophil; conditions: mouse neutrophils, read-out: Activity
[3] = Induction of apoptosis in mouse neutrophils assessed as live cells at 40 uM incubated for 16 hrs by Annexin V-FITC/PI staining based flow cytometry analysis (reference value: 48.5%); format: toxicity, cell-based, Neutrophil; conditions: read-out: Activity
Candida albicans [4] = experiment: Induction of neutrophil-mediated antifungal immunity against Candida albicans SC5314 infected in mouse assessed as reduction in accumulation of Ly6G positive neutrophils in bone marrow at 100 mg/kg, po administered once a day for 3 days; format: functional, organism-based; conditions: time 3.0 day
[5] = Therapeutic index, ratio of IC50 for cytotoxicity against mouse neutrophils to IC50 for inhibition of fungal curdlan induced PD-L1 expression in mouse neutrophils; format: toxicity; conditions: read-out: Ratio IC50
Candida albicans [6] = experiment: Induction of neutrophil-mediated antifungal immunity against Candida albicans SC5314 infected in mouse assessed as reduction in fungal burden in kidneys at 100 mg/kg, po administered once a day for 3 days; format: functional, organism-based; conditions: time 3.0 day
Neutrophil [7] = experiment: Induction of apoptosis in mouse neutrophils assessed as late apoptotic cells at 40 uM incubated for 16 hrs by Annexin V-FITC/PI staining based flow cytometry analysis (reference value: 24.1%); format: toxicity, cell-based
Candida albicans [8] = experiment: Induction of neutrophil-mediated antifungal immunity against Candida albicans SC5314 infected in mouse assessed as inhibition of CXCL1 protein expression in bone marrow at 100 mg/kg, po administered once a day for 3 days by ELISA; format: functional, organism-based; conditions: time 3.0 day
Neutrophil [9] = experiment: Induction of apoptosis in mouse neutrophils assessed as early apoptotic cells at 40 uM incubated for 16 hrs by Annexin V-FITC/PI staining based flow cytometry analysis (reference value: 25.9%); format: toxicity, cell-based
Neutrophil [10] = experiment: Induction of neutrophil-mediated antifungal immunity against Candida albicans SC5314 infected in mouse assessed as increase in neutrophil infiltration in kidney at 100 mg/kg, po administered once a day for 3 days; format: functional, organism-based; conditions: time 3.0 day
[11] = Oral bioavailability in Sprague-Dawley rat; format: ADME, organism-based; conditions: in vivo
Neutrophil [12] = experiment: Induction of apoptosis in mouse neutrophils assessed as early apoptotic cells at 20 uM incubated for 16 hrs by Annexin V-FITC/PI staining based flow cytometry analysis (reference value: 25.9%); format: toxicity, cell-based
Candida albicans [13] = experiment: Antifungal activity against Candida albicans SC5314 assessed as inhibition of fungal growth at 0.25 to 128 ug/ml measured every 3 hrs for 24 hrs by absorbance based analysis; format: functional, organism-based; conditions: dose 0.25-128 µg/ml
Candida albicans [14] = experiment: Induction of neutrophil-mediated antifungal immunity against Candida albicans SC5314 infected in cyclophosphamide-induced immunosuppressed C57BL/6 mouse at 100 mg/kg, po pretreated with CTX for 3 days followed by fungal infection and further administered with compound once a day for 3 days; format: functional, organism-based; conditions: time 3.0 day
[15] = molecular target: Signal transducer and activator of transcription 3 (Mus musculus) (UniProt P42227); experiment: Inhibition of biotinylated ACT001 probe binding to STAT3 in mouse bone marrow neutrophils at 100 uM by pulldown based Western blot analysis; format: cell-based; conditions: Neutrophil
[16] = AUC (0 to infinity) in Sprague-Dawley rat at 20 mg/kg, iv; format: ADME, organism-based; conditions: in vivo
[17] = Permeability of compound in PBS/EtOH (70:30) buffer incubated for 12 hrs by PAMPA-BBB assay; format: ADME; conditions: read-out: permeability
Candida albicans [18] = experiment: Induction of neutrophil-mediated antifungal immunity against Candida albicans SC5314 infected in mouse assessed as reduction in fungal clusters in kidney at 100 mg/kg, po administered once a day for 3 days by PAS staining based analysis; format: functional, organism-based; conditions: time 3.0 day
[19] = Induction of apoptosis in mouse neutrophils assessed as live cells at 20 uM incubated for 16 hrs by Annexin V-FITC/PI staining based flow cytometry analysis (reference value: 48.5%); format: toxicity, cell-based, Neutrophil; conditions: read-out: Activity
Neutrophil [20] = experiment: Induction of apoptosis in mouse neutrophils assessed as dead cells at 20 uM incubated for 16 hrs by Annexin V-FITC/PI staining based flow cytometry analysis (reference value: 1.58%); format: toxicity, cell-based
Candida albicans [21] = experiment: Induction of neutrophil-mediated antifungal immunity against Candida albicans SC5314 infected in mouse assessed as increase in animal survival rate at 100 mg/kg, po administered once a day for 3 days; format: functional, organism-based; conditions: time 3.0 day
Candida albicans [22] = experiment: Induction of neutrophil-mediated antifungal immunity against Candida albicans SC5314 infected in mouse assessed as reduction in PD-L1 positive Ly6G positive neutrophils in kidney at 100 mg/kg, po administered once a day for 3 days by flow cytometry analysis; format: functional, organism-based; conditions: time 3.0 day
[23] = Cytotoxicity against mouse neutrophils assessed as reduction in cell viability incubated for 16 hrs by flow cytometry analysis; format: toxicity, cell-based, Neutrophil
[24] = Half life in Sprague-Dawley rat; format: ADME; conditions: in vivo
[25] = Inhibition of fungal curdlan induced PD-L1 expression in mouse neutrophils assessed as reduction in PD-L1 positive Ly6G positive neutrophils incubated for 16 hrs by flow cytometry analysis; format: functional, cell-based; conditions: Neutrophil
Candida albicans [26] = experiment: Induction of neutrophil-mediated antifungal immunity against Candida albicans SC5314 infected in mouse assessed as reduction in PD-L1 positive Ly6G positive neutrophils in bone marrow at 100 mg/kg, po administered once a day for 3 days by flow cytometry analysis; format: functional, organism-based; conditions: time 3.0 day
Neutrophil [27] = experiment: Induction of apoptosis in mouse neutrophils assessed as late apoptotic cells at 20 uM incubated for 16 hrs by Annexin V-FITC/PI staining based flow cytometry analysis (reference value: 24.1%); format: toxicity, cell-based
Candida albicans [28] = experiment: Induction of neutrophil-mediated antifungal immunity against Candida albicans SC5314 infected in mouse assessed as inhibition of CXCL2 protein expression in bone marrow at 100 mg/kg, po administered once a day for 3 days by ELISA; format: functional, organism-based; conditions: time 3.0 day
Neutrophil [29] = experiment: Induction of apoptosis in mouse neutrophils assessed as dead cells at 40 uM incubated for 16 hrs by Annexin V-FITC/PI staining based flow cytometry analysis (reference value: 1.58%); format: toxicity, cell-based
Candida albicans [30] = experiment: Antifungal activity against Candida albicans SC5314 assessed as inhibition of fungal growth measured every 3 hrs for 24 hrs by absorbance based analysis; format: functional, organism-based; conditions: dose 0.25-128 µg/ml
Neutrophil [31] = experiment: as §1; format: toxicity, cell-based; conditions: neutrophil, 40 µM
Candida albicans [32] = experiment: Antifungal activity against candida albicans SC5314 infected in mouse assessed as reduction in PD-L1 positive Ly6G-positive neutrophils in kidney at 200 mg/kg, po administered on day 1 and 3; format: functional, organism-based; conditions: time 1-3 day
Candida albicans [33] = experiment: Antifungal activity against candida albicans SC5314 infected in mouse assessed as reduction in fungal burden in kidney at 200 mg/kg, po administered on day 1 and 3; format: functional, organism-based; conditions: time 1-3 day

Sequence of Signal transducer and activator of transcription 3 (Mus musculus) (P42227 whole entry): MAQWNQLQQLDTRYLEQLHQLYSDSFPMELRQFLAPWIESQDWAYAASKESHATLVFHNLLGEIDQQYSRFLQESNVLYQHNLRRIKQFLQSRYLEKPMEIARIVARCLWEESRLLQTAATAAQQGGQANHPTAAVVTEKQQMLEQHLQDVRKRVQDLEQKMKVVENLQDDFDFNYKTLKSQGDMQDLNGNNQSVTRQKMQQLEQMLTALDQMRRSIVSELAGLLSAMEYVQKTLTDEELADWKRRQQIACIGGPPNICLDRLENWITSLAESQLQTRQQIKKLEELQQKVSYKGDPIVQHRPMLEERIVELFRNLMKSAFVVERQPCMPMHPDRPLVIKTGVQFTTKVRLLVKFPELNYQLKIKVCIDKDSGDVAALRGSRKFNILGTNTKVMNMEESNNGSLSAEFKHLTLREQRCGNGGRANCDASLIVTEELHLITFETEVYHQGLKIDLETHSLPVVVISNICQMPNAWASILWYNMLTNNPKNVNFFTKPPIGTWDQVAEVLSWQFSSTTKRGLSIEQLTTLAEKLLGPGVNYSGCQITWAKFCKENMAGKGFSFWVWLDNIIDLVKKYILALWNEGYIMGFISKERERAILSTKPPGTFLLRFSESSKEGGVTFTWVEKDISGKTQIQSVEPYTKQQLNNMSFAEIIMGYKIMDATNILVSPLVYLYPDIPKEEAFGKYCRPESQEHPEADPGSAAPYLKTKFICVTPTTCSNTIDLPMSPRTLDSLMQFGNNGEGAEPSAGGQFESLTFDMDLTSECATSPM

Molecule `C[C@@]1(O)CC[C@]23O[C@@]2(C)CC[C@@H]2[C@H](OC(=O)[C@H]2C[S+]([O-])c2ccc(Cl)cc2Cl)[C@@H]13` (stereo in doubt; 23a) has an inhibition at 40 µM [1] of 61.1% and a viability at 40 µM [2] of 59.2%.
`C[C@@]1(O)CC[C@]23O[C@@]2(C)CC[C@@H]2[C@H](OC(=O)[C@H]2CS(=O)(=O)c2ccncc2)[C@@H]13` gave an inhibition at 40 µM [1] of 65.4% and a viability at 40 µM [2] of 79.4%.
`C[C@@]1(O)CC[C@]23O[C@@]2(C)CC[C@@H]2[C@H](OC(=O)[C@H]2CS(=O)(=O)c2ccc(F)cc2)[C@@H]13` showed an inhibition at 40 µM [1] of 82.6% and a viability at 40 µM [2] of 50.7%.
With `COc1ccc(S(=O)(=O)C[C@@H]2C(=O)O[C@H]3[C@H]2CCC(C)=C2CC[C@@](C)(O)[C@@H]23)cc1` the inhibition at 40 µM [1] was 63.5% and the viability at 40 µM [2] was 39.5%.
In the case of `CC1=C2CC[C@@](C)(O)[C@@H]2[C@H]2OC(=O)[C@@H](C)[C@@H]2CC1`, the inhibition at 40 µM [1] was 17.3% and the viability at 40 µM [2] was 98.6%.
For `CC1=C2CC[C@@](C)(O)[C@@H]2[C@H]2OC(=O)[C@@H](CN(C)C)[C@@H]2CC1` [ACT-001], the viability at 16 h, 40 µM [3] was 26.6%, the Activity (Candida albicans [4]) was “Active” and the selectivity ratio [5] was 1.7. For the same molecule, the Activity (Candida albicans [6]) was “Active”, the Activity (Neutrophil [7]) was 29.9% and the Activity (Candida albicans [8]) was “Active”. For the same molecule, the Activity (Neutrophil [9]) was 39.2%, the Activity (Neutrophil [10]) was “Active” and the bioavailability [11] was 50.8%. The Activity (Neutrophil [12]) was 35.1%, the Activity (Candida albicans [13]) was “inactive” and the Activity (Candida albicans [14]) was “inactive”. For the same molecule, the inhibition at 40 µM [1] was 72.8%, the inhibition [15] was “Active” and the AUC(0-inf) [16] was 5540 ng·h/mL. The Papp at 12 h [17] was 4.7 ×10⁻⁶ cm/s, the Activity (Candida albicans [18]) was “Active” and the viability at 16 h, 20 µM [19] was 37.1%. For the same molecule, the Activity (Neutrophil [20]) was 2.62%, the Activity (Candida albicans [21]) was “Active” and the Activity (Candida albicans [22]) was “Active”. It also gave an IC50 at 16 h [23] of 29.3 µM, a half-life [24] of 1.12 h and a viability at 40 µM [2] of 27.6%. The pIC50 [25] was 4.78, the Activity (Candida albicans [26]) was “Active” and the Activity (Neutrophil [27]) was 25.2%. The Activity (Candida albicans [28]) was “Active” and the Activity (Neutrophil [29]) was 4.28%.
In the case of `CC1=C2CC[C@@](C)(O)[C@@H]2[C@H]2OC(=O)[C@@H](CSc3ccncc3)[C@@H]2CC1`, the inhibition at 40 µM [1] was 72.5% and the viability at 40 µM [2] was 57.2%.
Molecule `C[C@@]1(O)CC[C@]23O[C@@]2(C)CC[C@@H]2[C@H](OC(=O)[C@H]2CS(=O)(=O)c2ncccn2)[C@@H]13` has an inhibition at 40 µM [1] of 85% and a viability at 40 µM [2] of 55.5%.
`CC1=C2CC[C@@](C)(O)[C@@H]2[C@H]2OC(=O)[C@@H](CS(=O)(=O)C3CCCCC3)[C@@H]2CC1` showed an inhibition at 40 µM [1] of 49.5% and a viability at 40 µM [2] of 66.3%.
For `OC(Cn1cncn1)(Cn1cncn1)c1ccc(F)cc1F`, the Activity (Candida albicans [30]) was “Dose-Dependent Effect”.
In the case of `C[C@@]1(O)CC[C@]23O[C@@]2(C)CC[C@@H]2[C@H](OC(=O)[C@H]2C[S+]([O-])c2ccc(Cl)cc2Cl)[C@@H]13` (stereo in doubt; 23b), the “inhibition (INH)” value [1] was 52.64% and the Activity (Neutrophil [31]) was 65.45%.
For `Cc1ccc(S(=O)(=O)C[C@@H]2C(=O)O[C@H]3[C@H]2CC[C@]2(C)O[C@@]24CC[C@@](C)(O)[C@H]34)cc1`, the inhibition at 40 µM [1] was 82%, the Activity (Candida albicans [32]) was “Active” and the Activity (Candida albicans [33]) was “Active”. For the same molecule, the viability at 40 µM [2] was 71.5%.
Work on `C[C@@]1(O)CC[C@]23O[C@@]2(C)CC[C@@H]2[C@H](OC(=O)[C@H]2CS(=O)(=O)C2CCCCC2)[C@@H]13` yielded an inhibition at 40 µM [1] of 65.3% and a viability at 40 µM [2] of 76.2%.
With `CC1=C2CC[C@@](C)(O)[C@@H]2[C@H]2OC(=O)[C@@H](C[S+]([O-])c3ccc(Cl)cc3Cl)[C@@H]2CC1` (stereo in doubt; 22b) the “inhibition (INH)” value [1] was 47.66% and the Activity (Neutrophil [31]) was 21.1%.
